From publication PMC4757451 (Biochemistry, 2015)

Assays:
CYP3A4 [1] = target: T1, CYP3A4 (Homo sapiens, UniProt P08684, S18F); experiment: Product formation; conditions: for Product formation rate after second substrate binding: intermediate with two molecules bound ([20]/[02]); for CBZ Product Rate / PGS Product Rate: mixed substrate global fit
CYP3A4 [2] = target: T1, CYP3A4; experiment: Steady-state NADPH oxidation by CYP3A4 Nanodiscs with CPR; assay type: biochemical

Compound | Product formation rate with only one substrate molecule bound (CYP3A4 [1]; first binding intermediate, fitted parameters, in words) | Product formation rate after third binding event (CYP3A4 [1]; intermediate with three molecules bound ([03]), pure substrate) | Product formation rate after second substrate binding (CYP3A4 [1]; pure substrate) | CBZ Product Rate (CYP3A4 [1]; mixed intermediate [11]) | CBZ product formation rate (CYP3A4 [1]; mixed intermediate [12]) | CBZ Product Rate (CYP3A4 [1]; mixed intermediate [12]) | CBZ product formation rate (CYP3A4 [1]; mixed intermediate [21]) | CBZ Product Rate (CYP3A4 [1]; mixed intermediate [21]) | Maximum rate of NADPH consumption, pure substrate (CYP3A4 [2]; at 30 µM PGS, at 200 µM CBZ) | NADPH consumption rate (CYP3A4 [2]; intermediate [20], pure PGS) | Rate of NADPH consumption at higher PGS concentrations (CYP3A4 [2]; pure PGS, above 30 µM, decreases down to this value) | PGS product formation rate in CBZ/PGS mixture at high concentration (CYP3A4 [1]; CBZ/PGS 12:1 mixture, 60 µM and higher PGS) | Maximum PGS product formation rate in CBZ/PGS mixture (CYP3A4 [1]; CBZ/PGS 12:1 mixture, reached at 18–20 µM PGS) | Factor by which PGS hydroxylation in [11] is slower than in [20] (CYP3A4 [1]; [11] versus [20]) | Hill coefficient nH (CYP3A4 [1]; fitting with the Hill equation, pure PGS) | Rate of PGS hydroxylation (CYP3A4 [1]; mixed intermediate [11]) | PGS Product Rate (CYP3A4 [1]; mixed intermediate [11]) | PGS Product Rate (CYP3A4 [1]; mixed intermediate [12]) | PGS Product Rate (CYP3A4 [1]; mixed intermediate [21])
NC(=O)N1c2ccccc2C=Cc2ccccc21 [CBZ, carbamazepine] | negligible | 3 min⁻¹ | 1.7 min⁻¹ | 0 (0.01) nmol/nmol/min | 4.5 min⁻¹ | 4.5 (2.0 – 6.0) nmol/nmol/min | 11 min⁻¹ | 11 (9.8 – 12.2) nmol/nmol/min | – | – | – | – | – | – | – | – | – | – | –
CC(=O)[C@H]1CC[C@H]2[C@@H]3CCC4=CC(=O)CC[C@]4(C)[C@H]3CC[C@]12C [PGS, progesterone] | – | – | 14.7 min⁻¹ | – | – | – | – | – | 240 min⁻¹ | 388 min⁻¹ | 160 min⁻¹ | 4 min⁻¹ | 5 min⁻¹ | 4 | 1.7 | 4 min⁻¹ | 4 (3.7 – 4.2) nmol/nmol/min | 0 (0.01) nmol/nmol/min | 0 (0.02) nmol/nmol/min
